Results: patent US11766470B2, “Manufacture, formulation and dosing of apraglutide” (VectivBio AG, priority 2020, dated 2023)
Values joined by “and” are separate entries in the source; they are usually repeats but may differ in a detail not shown here. Identical values can stand only once. Like-named read-outs stand apart in the source and are kept apart here. Marks after values point to notes of the source that are not given here. Square brackets hold non-standard residues; d marks the D form. Peptide text beside a SMILES is read from it. ξ: configuration not given here. Ile(3ξ) = CCC(C)[C@H](N)C(=O)O; Thr(3ξ) = CC(O)[C@H](N)C(=O)O; Nle = CCCC[C@H](N)C(=O)O

Key:
[1] = Multiple dose study in healthy volunteers (Examples 4 and 7), pharmacokinetics of plasma apraglutide, non-compartmental analysis; conditions: for CL/F / AUC(0-t) / half-life / Cmax / Tmax / Vd/F: human, plasma
Protocol: (§1) 23 healthy adult volunteers received 6 weekly subcutaneous doses of apraglutide (1, 5, or 10 mg) or placebo and were followed for a further 6 weeks after the last dose. Blood collections were controlled for diet, lifestyle, and diurnal effects. […] PK data underwent non-compartmental analysis and PD data were analyzed by ANCOVA.
(§2) As with citrulline, a statistical steady-state analysis per dose level was performed for apraglutide using Helmert's approach.

[2] = Plasma concentration of apraglutide (LC-MS/MS) in Phase 2 metabolic balance trial (Example 6); assay type: in vivo, human; conditions: 5 mg SC once weekly, SBS patients
Protocol: Blood samples for analysis of the plasma concentration of apraglutide and plasma concentration of fasting L-citrulline, a marker of enterocyte mass, were collected at baseline, during first and second injection (pre-dose and at sequential timepoints), four days after first injection and at the end of treatment. Blood sampling for apraglutide pharmacokinetics was also performed after the fourth and last injection covering 96 hours. […] Blood samples for anti-apraglutide antibodies were collected at baseline, at the end of treatment and at the 4-6 weeks follow-up visit. All eight patients tested negative for anti-apraglutide antibodies at baseline.
Apraglutide and L-citrulline were quantified using a validated LC-MS-based method. For a apraglutide, the analytical method used solid-phase extraction purification of the intact apraglutide molecule and its internal standard. The compounds were identified and quantified using reversed-phase HPLC with MS/MS detection using an AB Sciex API 5000 quadrupole mass spectrometer. For samples below the limit of quantification of 5.00 ng/mL, compounds were identified and quantified using reversed-phase UHPLC with MS/MS detection using an AB Sciex API 5500 quadrupole mass spectrometer. For L-citrulline, the analytical method used protein precipitation extraction of L-citrulline and its internal standard. The compounds were identified and quantified using Hilic HPLC with MS/MS detection using an AB Sciex API 5000 quadrupole mass spectrometer.

[3] = MCP-MOD dose-response analysis of citrulline (week 6) in healthy volunteers (Example 7); parameters: species or system human; conditions: for MCP step, estimate of the difference: citrulline week 6
Source text: The MCP-MOD procedure was applied. This statistical methodology consisted of 2 steps: the multiple comparisons step and the modelling step. The first step of the procedure (MCP) is used to test for a significant dose response by assessing pre-specified candidate models. Once a dose response has been established, the second step (MOD) is used to estimate a dose-response curve and estimation of target doses of interest. Five candidate models were specified:
Linear model with maximum effect for the 10 mg dose
Log-linear model with maximum effect for the 10 mg dose
Dose that induces maximum effect (Emax) model with ED50 of 5 mg
Sigmoidal Emax model with ED50 of 1 mg and hill coefficient (HILL) of 2
Sigmoidal Emax model with ED50 of 5 mg and HILL of 5
A subset of the citrulline data was made with the average pre-value and day 35 to 42=week 6 data. The coefficients were implemented in the mixed model analysis of variance with fixed factors treatment, time and treatment by time, random factor subject, and the average prevalue as covariate. The average pre-value was calculated from all pre-values after screening and before dosing.
The following contrasts are calculated within the model:
For all pharmacodynamic endpoints (citrulline, Bristol stool scale and weight), the pre-value has been used as covariate. The average pre-value was calculated from all pre-values after screening and before dosing, except for the Bristol stool scale, where the screening value was also used to calculate the average baseline. The average pre-value of citrulline was also used as covariate in the MCP-MOD, except in the Sigmoid Emax model. This was addressed by subtracting the pre-value times the slope of the linear model of the MCP part from the values of week 6.

[4] = Solubility, pH and isoelectric point of the peptide; assay type: physicochemical; conditions: purified water
[5] = human, in vivo
Protocol: as §1, §2

## CCCC[C@H](NC(=O)[C@H](CCC(=O)O)NC(=O)[C@H](CC(=O)O)NC(=O)[C@H](CO)NC(=O)[C@H](Cc1ccccc1)NC(=O)[C@H](CO)NC(=O)CNC(=O)[C@H](CC(=O)O)NC(=O)CNC(=O)[C@@H](N)Cc1c[nH]cn1)C(=O)N[C@H](Cc1ccccc1)C(=O)N[C@H](C(=O)N[C@H](C(=O)N[C@@H](CC(C)C)C(=O)N[C@@H](CC(=O)O)C(=O)N[C@@H](CC(C)C)C(=O)N[C@@H](CC(C)C)C(=O)N[C@@H](C)C(=O)N[C@@H](C)C(=O)N[C@@H](CCCNC(=N)N)C(=O)N[C@@H](CC(=O)O)C(=O)N[C@@H](Cc1ccccc1)C(=O)N[C@H](C(=O)N[C@@H](CC(N)=O)C(=O)N[C@@H](Cc1c[nH]c2ccccc12)C(=O)N[C@@H](CC(C)C)C(=O)N[C@H](C(=O)N[C@@H](CCC(N)=O)C(=O)N[C@H](C(=O)N[C@@H](CCCCN)C(=O)N[C@H](C(=O)N[C@H](C(=O)N[C@@H](CC(=O)O)C(N)=O)C(C)O)C(C)CC)C(C)O)C(C)CC)C(C)CC)C(C)CC)C(C)O (stereo partly drawn) [apraglutide, L-histidyl-glycyl-L-aspartyl-glycyl-L-seryl-L-phenylalanyl-L-seryl-L-aspartyl-L-glutamyl-L-norleucyl-D-phenylalanyl-L-threonyl-Lisoleucyl-L-leucyl-L-aspartyl-L-leucyl-L-leucyl-L-alanyl-L-alanyl-L-arginyl-L-aspartyl-L-phenylalanyl-L-isoleucyl-L-asparaginyl-Ltryptophanyl-L-leucyl-L-isoleucyl-L-glutaminyl-L-threonyl-L-lysyl-L-isoleucyl-L-threonyl-Laspartic acid amide] (H-HGDGSFSDE[Nle][dF][Thr(3ξ)][Ile(3ξ)]LDLLAARDF[Ile(3ξ)]NWL[Ile(3ξ)]Q[Thr(3ξ)]K[Ile(3ξ)][Thr(3ξ)]D-NH2)
[1]; 1 mg
  1st Ctrough, arithmetic mean ± SD: 0.000 ng/mL and 0.000 ± 0.000 ng/mL
  4th Ctrough, arithmetic mean ± SD: 0.873 ng/mL
[1]; 1 mg, (first dose)
  AUCtau, arithmetic mean ± SD: 35.214 ng·days/mL
  AUCtau/dose, Arithmetic mean ± standard deviation: 0.03037 ± 152.1 ng·days/mL/µg
[1]; 1 mg, dose #6
  AUCtau/dose, Arithmetic mean ± standard deviation: 0.05813 ± 23.1 ng·days/mL/µg
[1]; 5 mg
  4th Ctrough, arithmetic mean ± SD: 10.163 ng/mL
  5th Ctrough, arithmetic mean ± SD: 7.605 ng/mL
[1]; 5 mg, (first dose)
  AUCtau, arithmetic mean ± SD: 300.269 ng·days/mL
  AUCtau/dose, Arithmetic mean ± standard deviation: 0.05407 ± 47.1 ng·days/mL/µg
[1]; 5 mg, dose #6
  AUCtau/dose, Arithmetic mean ± standard deviation: 0.06595 ± 47.2 ng·days/mL/µg
[1]; 5 mg, dose #6 (N = 4)
  Lambda_Z, Arithmetic mean ± standard deviation: 0.2384 ± 36.6** 1/d
  Lambda_Z, arithmetic mean ± SD: 0.2508 ± 0.09871** 1/d
[1]; 10 mg
  2nd Ctrough, arithmetic mean ± SD: 18.460 ng/mL
  6th Ctrough, arithmetic mean ± SD: 13.710 ng/mL
[1]; 10 mg, (first dose)
  AUCtau, arithmetic mean ± SD: 476.937 ng·days/mL
  AUCtau/dose, Arithmetic mean ± standard deviation: 0.04291 ± 47.6 ng·days/mL/µg
[1]; 10 mg, Helmert's approach
  Steady-state contrast: mean Ctrough over week 3 to 6 against week 2: −3.616
[1]; 10 mg, dose #6
  Lambda_Z, arithmetic mean ± SD: 0.2463 ± 0.09975 day⁻¹
[1]; 10 mg, dose #6 (N = 5)
  AUCtau/dose, Arithmetic mean ± standard deviation: 0.05288 ± 52.4 ng·days/mL/µg
  Lambda_Z, Arithmetic mean ± standard deviation: 0.231 ± 41.3* 1/d
[1]; dose-normalized Cmax and AUCtau
  Kinetics over the 1 to 10 mg dose range, in words: follows linear kinetics
[1]; sc, 1 mg
  CL/F: 11.9 mL/min
[1]; sc, 1 mg, AUClast, Arithmetic mean ± standard deviation, dose #6
  AUC(0-t): 1310 ng·h/mL
[1]; sc, 1 mg, AUClast, arithmetic mean ± SD, dose #6
  AUC(0-t): 1360 ng·h/mL
[1]; sc, 1 mg, AUCtau, arithmetic mean ± SD, (first dose)
  AUC(0-t): 845 ng·h/mL
[1]; sc, 5 mg
  CL/F: 10.5 mL/min
[1]; sc, 5 mg, AUClast, Arithmetic mean ± standard deviation, dose #6
  AUC(0-t): 8500 ng·h/mL
[1]; sc, 5 mg, AUClast, arithmetic mean ± SD, dose #6
  AUC(0-t): 9170 ng·h/mL
[1]; sc, 5 mg, AUCtau, arithmetic mean ± SD, (first dose)
  AUC(0-t): 7210 ng·h/mL
[1]; sc, 10 mg
  CL/F: 13.1 mL/min
[1]; sc, 10 mg, AUClast, Arithmetic mean ± standard deviation, dose #6 (N = 5)
  AUC(0-t): 13800 ng·h/mL
[1]; sc, 10 mg, AUCtau, arithmetic mean ± SD, (first dose)
  AUC(0-t): 11400 ng·h/mL
[1]; sc, 10 mg, Half-life indicated by PK parameters, healthy volunteers, 6 weekly SC doses of 1, 5 or 10 mg
  half-life: 3 days
[1]; subcutaneous, 1 mg, arithmetic mean ± SD, (first dose)
  Cmax: 13.9 ± 11.2 ng/mL
[1]; subcutaneous, 1 mg, arithmetic mean ± SD, dose #6
  Cmax: 24.2 ± 9.22 ng/mL
[1]; subcutaneous, 1 mg, geometric mean (geometric coefficient of variation %), (first dose)
  Cmax: 12.3 ± 146 ng/mL
[1]; subcutaneous, 1 mg, tmax at dose 1 and 6, 1 mg
  Tmax: ~24 h
[1]; subcutaneous, 1 mg, tmax, median, (first dose)
  Tmax: 24 h
[1]; subcutaneous, 1 mg, tmax, median, dose #6
  Tmax: 21.6 h
[1]; subcutaneous, 5 mg
  Vd/F: 50.2 ± 61 L
[1]; subcutaneous, 5 mg, arithmetic mean ± SD, (first dose)
  Cmax: 94.1 ± 50.5 ng/mL
[1]; subcutaneous, 5 mg, arithmetic mean ± SD, dose #6
  Cmax: 125 ± 72.1 ng/mL
[1]; subcutaneous, 5 mg, geometric mean (geometric coefficient of variation %), (first dose)
  Cmax: 84.1 ± 55.1 ng/mL
[1]; subcutaneous, 5 mg, geometric mean (geometric coefficient of variation %), dose #6
  Cmax: 108 ± 64.6 ng/mL
[1]; subcutaneous, 5 mg, Half life, 5 mg, following dose #6
  half-life: 3.03 ± 0.958 days
[1]; subcutaneous, 5 mg, t1/2, lower section headed Arithmetic mean ± standard deviation, dose #6 (N = 4)
  half-life: 2.91 days
[1]; subcutaneous, 5 mg, tmax at dose 1 and 6, 5 mg
  Tmax: ~24 h
[1]; subcutaneous, 5 mg, tmax, median, (first dose)
  Tmax: 24 h
[1]; subcutaneous, 5 mg, tmax, median, dose #6
  Tmax: 24 h
[1]; subcutaneous, 10 mg
  Vd/F: 81.9 ± 98.6 L
[1]; subcutaneous, 10 mg, arithmetic mean ± SD, (first dose)
  Cmax: 137 ± 55 ng/mL
[1]; subcutaneous, 10 mg, arithmetic mean ± SD, dose #6
  Cmax: 182 ± 97.6 ng/mL
[1]; subcutaneous, 10 mg, geometric mean (geometric coefficient of variation %), (first dose)
  Cmax: 128 ± 39.9 ng/mL
[1]; subcutaneous, 10 mg, Half life, 10 mg, following dose #6
  half-life: 3.18 ± 1.15 days
[1]; subcutaneous, 10 mg, t1/2, lower section headed Arithmetic mean ± standard deviation, dose #6 (N = 5)
  half-life: 3 days
[1]; subcutaneous, 10 mg, tmax at dose 1 and 6, 10 mg
  Tmax: ~48 h
[1]; subcutaneous, 10 mg, tmax, median, (first dose)
  Tmax: 45.6 h
[1]; subcutaneous, 10 mg, tmax, median, dose #6
  Tmax: 45.6 h
[2]
  Mean clearance: 0.9 L/h
[2]; human, plasma, read-out: Maximum mean plasma concentration
  Cmax: 118 ng/mL
[2]; human, plasma, read-out: Mean elimination half-life (converted)
  half-life: 1620 min
[2]; human, plasma, read-out: Mean time to maximum concentration
  Tmax: 29.5 h
[3]; Emax model
  Predicted citrulline change from placebo effect for dose of 1 mg: 0.8535 µg/mL
  Predicted citrulline change from placebo effect for dose of 5 mg: 2.2442 µg/mL
  Predicted citrulline change from placebo effect for dose of 10 mg: 2.8182 µg/mL
  Predicted dose for citrulline change from placebo of 1 μg/mL: 1.2333 mg
  Predicted dose for citrulline change from placebo of 2 μg/mL: 3.8471 mg
  Predicted dose for citrulline change from placebo of 3 μg/mL: 13.1053 mg
[3]; Log-linear model
  Predicted citrulline change from placebo effect for dose of 1 mg: 0.8712 µg/mL
  Predicted citrulline change from placebo effect for dose of 5 mg: 2.1652 µg/mL
  Predicted citrulline change from placebo effect for dose of 10 mg: 2.8604 µg/mL
  Predicted dose for citrulline change from placebo of 1 μg/mL: 1.2249 mg
  Predicted dose for citrulline change from placebo of 2 μg/mL: 4.2011 mg
  Predicted dose for citrulline change from placebo of 3 μg/mL: 11.4325 mg
[3]; Sigmoid Emax model
  Predicted citrulline change from placebo effect for dose of 1 mg: 0.7125 µg/mL
  Predicted citrulline change from placebo effect for dose of 5 mg: 2.3327 µg/mL
  Predicted citrulline change from placebo effect for dose of 10 mg: 2.6946 µg/mL
  Predicted dose for citrulline change from placebo of 1 μg/mL: 1.3606 mg
  Predicted dose for citrulline change from placebo of 2 μg/mL: 3.4042 mg
  Predicted dose for citrulline change from placebo of 2.5 μg/mL: 6.4619 mg
[3]; candidate model Emax with ED50 = 5 mg
  MCP step, estimate of the difference: 2.2150
[3]; candidate model Linear
  MCP step, estimate of the difference: 2.0781
[3]; candidate model Log-linear
  MCP step, estimate of the difference: 2.2125
[3]; candidate model Sigmoid Emax with ED50 = 1 mg and H = 2
  MCP step, estimate of the difference: 2.1663
[3]; candidate model Sigmoid Emax with ED50 = 5 mg and H = 5
  MCP step, estimate of the difference: 2.0713
[4]
  solubility: > 100 mg/mL
[5]
  Quantifiable concentration in the last pharmacokinetic sample (2 weeks after last dose): up to 4.46 ng/mL
[5]; 5 mg
  CL/F, arithmetic mean ± SD: 16.480 L/day
[5]; 10 mg
  CL/F, arithmetic mean ± SD: 20.747 L/day
